Assay results: patent US20130109693A1, “DERIVATIVES OF PYRIDO [3,2-D] PYRIMIDINE, METHODS FOR PREPARATION THEREOF AND THERAPEUTIC USES THEREOF” (UNIVERSITE D'ORLEANS, priority 2010, published 2013)

What was measured:
MDA-MB 231 = test: Cytotoxicity on human cells, MDA-MB 231 (breast); format: cell-based; conditions: MDA-MB-231, human cells, exposed 24 h and 48 h, 0.1 to 25 μM
Experimental: (§1) […] Dosages on Human cells (Huh7, Caco, MDA-MB 231, HCT 116, PC3, NCl, Fibroblast)
(§2) Cytotoxicity: This method is based on an automated imaging analysis. 4.10^3 cells were cultivated on 96-well plates and thus left for 24 hours so that they may bind, be distributed and proliferate.
(§3) These cells were then exposed for 24 h and 48 h to increasing concentrations of the compounds of the invention, from 0.1 to 25 μM in a final volume of 80 μL of culture medium. The cells are then set with a 4% paraformaldehyde solution and the nuclei are colored with Hoechst 3342 and counted according to automated imaging quantification.
(§4) All the cell lines were cultivated in a DMEM or RPMI (Invitrogen) medium. All these media were completed with antibiotics (penicillin-streptomycin)(Lonza) and 10% by volume of foetal calf serum (Invitrogen). The cells were cultivated at 37° C. with 5% of CO2. The treatments with the molecules to be tested were carried out with increasing concentrations. […] The control experiments were also conducted by using suitable dilutions of DMSO (maximum 1% DMSO). Cell viability was determined by measuring the reduction of MTS as described in the article of Ribas J, Boix J. (2004). Cell differentiation caspase inhibition and macromolecular synthesis blockage but not BCL-2 or BCL-XL proteins protect SH-SY5Y cells from apoptosis triggered by two CDK inhibitory drugs. Exp. Cell Res., 295: 9-24.

DYRK1A = DYRK1A (Homo sapiens, UniProt Q13627); test: DYRK1A kinase inhibition (Woodtide substrate, buffer A); format: biochemical; conditions: 15 μM ATP, 30° C., recombinant GST fusion; read-out: IC50 Kinases DYRK1A
Experimental: (§5) The activities for inhibiting protein kinases of the compounds of the invention are tested according to the following general procedure:
(§6) Buffer A: 10 mM MgCl2, 1 mM EGTA, 1 mM DTT, 25 mM Tris-HCl pH 7.5 and 50 μg heparin/mL.
(§7) The kinase activities are dosed in buffers A or C, at 30° C., at a final concentration of ATP of 15 μM. The values of the blanks were subtracted and the activities are expressed as a % of the maximum activity, i.e. in the absence of inhibitors. The controls were carried out with suitable dilutions of DMSO.

CDK5 = molecular target: T1, CDK5 (Homo sapiens, UniProt Q00535); test: CDK5 kinase inhibition (histone H1, [γ-33P] ATP, buffer C); format: biochemical; conditions: 15 μM ATP, 30° C., recombinant; read-out: IC50 Kinases CDK5
T1 construct: made in house
Experimental: as §5
Buffer C: 60 mM β-glycerophosphate, 15 mM p-nitrophenyl-phosphate, 25 mM Mops (pH 7.2), 5 mM EGTA, 15 mM MgCl2, 1 mM DTT, 1 mM of sodium vanadate
as §7
CDK5 (humane, recombinant) was prepared as described earlier (Leclerc, S.; Garnier, M.; Hoessel, R.; Marko, D.; Bibb, J. A.; Snyder, G. L.; Greengard, P.; Biernat, J.; Mandelkow, E.-M.; Eisenbrand, G.; Meijer, L. Indirubins inhibit glycogen synthase kinase-3β and CDK5/p25, two kinases involved in abnormal tau phosphorylation in Alzheimer's disease—A property common to most CDK inhibitors? J. Biol. Chem. 2001, 276, 251-260; Bach S, Knockaert M, Reinhardt J, Lozach O, Schmitt S, Baratte B et al. (2005). Roscovitine targets, protein kinases and pyridoxal kinase. J. Biol Chem 280: 31208-31219). Its kinase activity was analyzed in the buffer C, with 1 mg of histone H1/mL, in the presence of 15 μM of [γ-^33P] ATP (3,000 Ci/mmol; 10 mCi/mL) in a final volume of 30 μl. After 30 mins of incubation at 30° C., 25 μl of supernatant aliquots were deposited on 2.5×3 cm pieces of phosphocellulose Whatman P81 paper, and after 20 seconds, the filters were washed five times (for at least 5 minutes every time) in a solution of 10 mL phosphoric acid/liter of water. The wet filters were counted in the presence of 1 mL of ACS scintillator fluid (Amersham).

fibroblast = test: Cytotoxicity on human cells, fibroblast; format: cell-based; conditions: exposed 24 h and 48 h, 0.1 to 25 μM
Experimental: as §1, §2, §3, §4

Caco = test: Cytotoxicity on human cells, Caco (colon); format: cell-based; conditions: exposed 24 h and 48 h, 0.1 to 25 μM
Experimental: as §1, §2, §3, §4

HCT 116 = test: Cytotoxicity on human cells, HCT 116 (colon); format: cell-based; conditions: exposed 24 h and 48 h, 0.1 to 25 μM
Experimental: as §1, §2, §3, §4

GSK-3αβ = GSK-3αβ kinase inhibition (GS-1 substrate, buffer A); format: biochemical; conditions: 15 μM ATP, 30° C., native, pig brain; read-out: IC50 Kinases GSK3
Experimental: as §5, §6, §7
GSK-3αβ (from pig brain, native) was assayed by using a specific substrate of GSK-3 (GS-1: […]pEDEEE)(Sp represents a phosphorylated serine) (Primot, A., Baratte, B., Gompel, M., Borgne, A., Liabeuf, S., Romette, J. L., Costantini, F. and Meijer, L., 2000. Purification of GSK-3 by affinity chromatography on immobilized axin. Protein Expr. & Purif. 20 (3), 394-404). GS-1 was synthesized by Millegen (Labège, France). Its kinase activity was analyzed in the buffer A, with 1 mg of histone H1/mL, in the presence of 15 μM of [γ-^33P] ATP (3,000 Ci/mmol; 10 mCi/mL) in a final volume of 30 μl. After 30 mins of incubation at 30° C., 25 μl of supernatant aliquots were deposited on 2.5×3 cm pieces of phosphocellulose Whatman P81papier, and after 20 seconds, the filters were washed five times (for at least 5 minutes every time) in a solution of 10 mL of phosphoric acid/liter of water. The wet filters were counted in the presence of 1 mL of ACS scintillator fluid (Amersham).

NCI = test: Cytotoxicity on human cells, NCI (lung); format: cell-based; conditions: exposed 24 h and 48 h, 0.1 to 25 μM
Experimental: as §1, §2, §3, §4

Huh7 = test: Cytotoxicity on human cells, Huh7 (liver); format: cell-based; conditions: Huh-7, human cells, exposed 24 h and 48 h, 0.1 to 25 μM
Experimental: as §1, §2, §3, §4

PC3 = test: Cytotoxicity on human cells, PC3 (prostate); format: cell-based; conditions: PC-3, human cells, exposed 24 h and 48 h, 0.1 to 25 μM
Experimental: as §1, §2, §3, §4

T1 sequence (Q00535 whole entry): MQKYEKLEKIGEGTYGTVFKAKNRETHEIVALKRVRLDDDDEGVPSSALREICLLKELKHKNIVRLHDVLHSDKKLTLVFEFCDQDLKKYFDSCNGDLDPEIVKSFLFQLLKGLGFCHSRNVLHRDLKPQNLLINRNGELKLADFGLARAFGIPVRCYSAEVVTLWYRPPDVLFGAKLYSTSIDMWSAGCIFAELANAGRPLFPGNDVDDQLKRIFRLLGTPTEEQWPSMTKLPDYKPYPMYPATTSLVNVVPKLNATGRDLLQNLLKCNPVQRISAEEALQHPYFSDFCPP
T1 sequence (Q15078 99-307 partner limits assumed): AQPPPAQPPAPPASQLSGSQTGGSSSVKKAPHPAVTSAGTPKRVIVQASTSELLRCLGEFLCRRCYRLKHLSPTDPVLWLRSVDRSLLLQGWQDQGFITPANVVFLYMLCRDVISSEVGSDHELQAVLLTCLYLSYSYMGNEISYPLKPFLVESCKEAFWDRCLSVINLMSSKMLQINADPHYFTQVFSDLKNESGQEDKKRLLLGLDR

| Structure (SMILES) | IC50 (DYRK1A) [µM] | IC50 (CDK5) [µM] | melting point [°C] | IC50 (GSK-3αβ) [µM] | IC50 (MDA-MB 231) [µM] | IC50 (fibroblast) [µM] | IC50 (Caco) [µM] | IC50 (HCT 116) [µM] | IC50 (NCI) [µM] | IC50 (Huh7) [µM] | IC50 (PC3) [µM] |
| --- | --- | --- | --- | --- | --- | --- | --- | --- | --- | --- | --- |
| CS(=O)(=O)c1ccc(-c2cnc3cnc(-c4ccc(O)cc4)nc3c2)cc1 [Compound 26, 2-(4-Hydroxyphenyl)-7-(4-methanesulfonylphenyl)-pyrido[3,2-d]pyrimidine] | > 10 | 0.48 | 306 to 307 | > 100 | > 25 | > 25 | > 25 | > 25 | > 25 | > 25 | > 25 |
| Oc1ccc(-c2ncc3ncc(Cl)cc3n2)cc1 [Compound 17, 7-Chloro-2-(4-hydroxyphenyl)-pyrido[3,2-d]pyrimidine] | 16 | 5.1 | 231 to 232 | > 100 | > 25 | > 25 | > 25 | > 25 | > 25 | > 25 | > 25 |
| Oc1ccc(-c2ncc3ncc(-c4cccc(O)c4)cc3n2)cc1 [Compound 23, 2-(4-Hydroxyphenyl)-7-(3-hydroxyphenyl)-pyrido[3,2-d]pyrimidine] | 2.4 | 0.11 | 256 to 257 | > 100 | > 25 | > 25 | 4 | 7 | 20 | 10 | 9 |
| Oc1ccc(-c2ncc3ncc(-c4ccc(C(F)(F)F)cc4)cc3n2)cc1 [Compound 25, 2-(4-Hydroxyphenyl)-7-(4-trifluoromethylphenyl)-pyrido[3,2-d]pyrimidine] | 24 | 0.97 | 203 to 204 | ≥ 100 | > 25 | > 25 | > 25 | > 25 | 20 | 25 | > 25 |
| Oc1ccc(-c2ncc3ncc(-c4ccoc4)cc3n2)cc1 [Compound 36] | > 10 | – | – | – | – | 20 | – | 10 | – | > 25 | > 25 |
| Oc1ccc(-c2cnc3cnc(-c4ccc(O)cc4)nc3c2)cc1 [Compound 20, 2,7-Di-(4-hydroxyphenyl)-pyrido[3,2-d]pyrimidine] | 0.93 | 0.12 | – | 26 | > 25 | > 25 | 7 | 12 | > 25 | 12 | 25 |

Further lines, with some results ahead:

| IC50 (DYRK1A) [µM] | IC50 (CDK5) [µM] | melting point [°C] | IC50 (GSK-3αβ) [µM] | Structure (SMILES) | IC50 (MDA-MB 231) [µM] | IC50 (fibroblast) [µM] | IC50 (Caco) [µM] | IC50 (HCT 116) [µM] | IC50 (NCI) [µM] | IC50 (Huh7) [µM] | IC50 (PC3) [µM] |
| --- | --- | --- | --- | --- | --- | --- | --- | --- | --- | --- | --- |
| – | – | 110 to 111 | – | COc1cccc(Nc2cnc3c(NCc4ccccc4)nc(NCCO)nc3c2)c1 [Compound 84, 4-Benzylamino-2-(2-hydroxyethylamino)-7-(3-methoxyphenylamino)-pyrido[3,2-d]pyrimidine] | 15 | 5 | 4 | 5 | 3 | 3 | 5 |
| > 10 | 0.11 | 240 to 242 | > 10 | Oc1ccc(-c2ncc3ncc(-c4cccs4)cc3n2)cc1 [Compound 38, 2-(4-Hydroxyphenyl)-7-(2-thiophyl)-pyrido[3,2-d]pyrimidine] | > 25 | 2 | > 25 | 4 | 3 | > 25 | 25 |
| > 10 | 3.7 | 262 to 264 | > 10 | Oc1ccc(Nc2ncc3ncc(-c4ccccc4O)cc3n2)cc1 [Compound 60, 2-(4-Hydroxyphenylamino)-7-(2-hydroxyphenyl)-pyrido[3,2-d]pyrimidine] | 10 | 5 | 4 | 8 | 5 | 6 | 20 |
| > 10 | > 10 | > 268 | > 10 | Cc1csc(Nc2cnc3cnc(-c4ccc(O)cc4)nc3c2)n1 [Compound 50, 2-(4-Hydroxyphenyl)-7-(2-(4-methyl)thiazolamino)-pyrido[3,2-d]pyrimidine] | 25 | > 25 | > 25 | > 25 | 25 | 10 | > 25 |
| – | – | 141 to 142 | – | OCCNc1nc(NCc2ccccc2)c2ncc(Nc3ncccn3)cc2n1 [Compound 87, 4-Benzylamino-2-(2-hydroxyethylamino)-7-(2-pyrimidinylamino)-pyrido[3,2-d]pyrimidine] | 15 | 15 | 8 | 6 | 6 | 7 | 15 |
| – | – | 203 to 204 | – | OCCNc1nc(NCc2ccccc2)c2ncc(Nc3ccc4ncccc4c3)cc2n1 [Compound 90, 4-Benzylamino-2-(2-hydroxyethylamino)-7-(6-quinolinamino)-pyrido[3,2-d]pyrimidine] | 4 | 1.5 | 4 | 1.2 | 2 | 2 | 5 |
| – | – | 126 to 127 | – | COc1ccc(Nc2cnc3c(NCc4ccccc4)nc(NCCO)nc3c2)cc1 [Compound 83, 4-Benzylamino-2-(2-hydroxyethylamino)-7-(4-methoxyphenylamino)-pyrido[3,2-d]pyrimidine] | 10 | 15 | 8 | 5 | 6 | 5 | 12 |
| – | – | 154 to 155 | – | OCCNc1nc(NCc2ccccc2)c2ncc(Nc3cnc4ccccc4c3)cc2n1 [Compound 89, 4-Benzylamino-2-(2-hydroxyethylamino)-7-(3-quinolinamino)-pyrido[3,2-d]pyrimidine] | 3 | 2 | 2 | 0.5 | 2 | 3 | 3 |
